Active and inactive are the calls of the source. No cut-off for these calls is given here.
Legend:
[1] = test system: Rattus norvegicus; assay: Prokinetic activity expressed as stimulation of intragastric pressure in rat at the lowest active dose in mg/kg on subcutaneous administration.; assay type: functional
[2] = test system: Mus musculus; assay: Dopamine antagonist activity expressed as inhibition of apomorphine-induced climbing in mice, subcutaneous administration; assay type: functional
[3] = Selectivity at Dopamine receptors compared to 5-HT receptors.; assay type: functional
[4] = molecular target: D(2) dopamine receptor (Rattus norvegicus, UniProt P61169); assay: Compound was tested against Dopamine receptor D2 by displacement of [125I]iodosulpiride radioligand from rat D2 clones
[5] = test system: Rattus norvegicus; assay: Antagonist activity against 5-HT3 receptor was assessed from ability to inhibit the 5-HT -induced bradycardia when dose given intravenously; inactive up to 1 mg/kg; assay type: functional, organism-based; design: dose 1 mg/kg
[6] = Mus musculus, sc, read-out: ED50

Chain of D(2) dopamine receptor (P61169 whole entry): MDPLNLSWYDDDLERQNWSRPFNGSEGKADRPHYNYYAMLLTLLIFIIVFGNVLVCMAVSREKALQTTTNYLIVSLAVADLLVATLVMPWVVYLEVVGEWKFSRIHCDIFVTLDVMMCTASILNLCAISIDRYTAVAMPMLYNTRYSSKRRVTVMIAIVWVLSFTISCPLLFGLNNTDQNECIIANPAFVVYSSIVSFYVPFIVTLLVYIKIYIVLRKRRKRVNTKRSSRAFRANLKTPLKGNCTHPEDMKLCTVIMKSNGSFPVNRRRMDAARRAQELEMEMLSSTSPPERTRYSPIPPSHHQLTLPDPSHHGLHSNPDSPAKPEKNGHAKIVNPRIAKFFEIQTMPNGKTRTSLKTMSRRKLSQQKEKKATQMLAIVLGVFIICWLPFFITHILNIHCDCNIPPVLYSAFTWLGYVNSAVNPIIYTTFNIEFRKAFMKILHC

| Ratio [3] | Compound | Activity [1] [mg/kg] | ED50 [2] [mg/kg] | further results |
| --- | --- | --- | --- | --- |
| 15 | COc1cc(N)c(Cl)cc1C(=O)NC1CCN2CCCC12 (centres undefined) | 0.5 |  | ED50 [2, 6]: 7.5 mg/kg |
| > 10 | CCCC1CCCC2CC(NC(=O)c3cc(Cl)c(N)cc3OC)CCN12 (centres undefined) | 1 |  | ED50 [2, 6]: > 10 mg/kg |
| > 125 | COc1cc(N)c(Cl)cc1C(=O)NC[C@H]1CCC2CCCCN2C1 (some centres undefined) | 0.2 |  | IC50 [4]: 3.9 µM; ED50 [2, 6]: > 25 mg/kg; Activity [5]: inactive |
|  | COc1cc(N)c(Cl)cc1C(=O)NC1CCN2CCCC2(C)C1 (centres undefined) | >1 |  | ED50 [2, 6]: > 30 mg/kg |
| 30 | COc1cc(N)c(Cl)cc1C(=O)NC1CCN2C(C)CCC2C1 (centres undefined) | 0.5 |  | ED50 [2, 6]: 15 mg/kg |
|  | COc1cc(N)c(Cl)cc1C(=O)NC1CCC2CCCCN2CC1 (centres undefined) | >25 |  | ED50 [2, 6]: > 50 mg/kg |
|  | COc1cc(N)c(Cl)cc1C(=O)NCC1CC2CCCCN2C1 (centres undefined) | >25 |  | Activity [5]: inactive |
|  | COc1cc(N)c(Cl)cc1C(=O)NCC1CCC2CCCCN2C1 (centres undefined) | 5 |  |  |
|  | COc1cc(N)c(Cl)cc1C(=O)NCC1CCCN2CCCCC12 (single isomer, unassigned) | >25 |  |  |
|  | COc1cc(N)c(Cl)cc1C(=O)NCC1CCC2CCCCN21 (single isomer, unassigned) [listing 1 of 2 here] | 0.2 |  | ED50 [2, 6]: 15 mg/kg |
|  | COc1cc(N)c(Cl)cc1C(=O)NC1CCN2CCCCC12 (single isomer, unassigned) [listing 1 of 2 here] | 0.5 | 0.2 |  |
| 0.4 | COc1cc(N)c(Cl)cc1C(=O)NC1CCN2CCCCC12 (single isomer, unassigned) [listing 2 of 2 here] |  |  |  |
| 75 | COc1cc(N)c(Cl)cc1C(=O)NCC1CCC2CCCCN21 (single isomer, unassigned) [listing 2 of 2 here] |  |  |  |
|  | COc1cc(N)c(Cl)cc1C(=O)NC1CCCN2CCCCC2C1 (single isomer, unassigned; form 1) [listing 1 of 2 here] | 1 |  | ED50 [2, 6]: > 50 mg/kg |
|  | COc1cc(N)c(Cl)cc1C(=O)NC1CC2CCCCN2C1 (single isomer, unassigned; form 1) | >10 | >10 |  |
| > 50 | COc1cc(N)c(Cl)cc1C(=O)NC1CCCN2CCCCC2C1 (single isomer, unassigned; form 1) [listing 2 of 2 here] |  |  |  |
|  | COc1cc(N)c(Cl)cc1C(=O)NC1CCCN2CCCCC2C1 (single isomer, unassigned; form 2) [listing 1 of 2 here] |  | 38 |  |
|  | COc1cc(N)c(Cl)cc1C(=O)NC1CC2CCCCN2C1 (single isomer, unassigned; form 2) |  | 0.1 |  |
| 38 | COc1cc(N)c(Cl)cc1C(=O)NC1CCCN2CCCCC2C1 (single isomer, unassigned; form 2) [listing 2 of 2 here] |  |  |  |
|  | COc1cc(N)c(Cl)cc1C(=O)NCC1CCC2CCCCN21 (stereo in doubt) | >1 | 20 |  |
|  | COc1cc(N)c(Cl)cc1C(=O)NC1CCN2CCCCC12 (stereo in doubt) [listing 1 of 2 here] | 1 | 1.8 |  |
| 50 | COc1cc(N)c(Cl)cc1C(=O)NC1CCN2C(C)CCCC2C1 (stereo in doubt) |  |  |  |
| 1.8 | COc1cc(N)c(Cl)cc1C(=O)NC1CCN2CCCCC12 (stereo in doubt) [listing 2 of 2 here] |  |  |  |
|  | COc1cc(N)c(Cl)cc1C(=O)NC1CCN2C(C)CCCC2C1 (stereo in doubt) [BRL-20627] | 0.5 |  | ED50 [2, 6]: 25 mg/kg |

| Ratio [3] | Compound | Activity [1] [mg/kg] | ED50 [2] [mg/kg] | further results |
| --- | --- | --- | --- | --- |
| 50 | COc1cc(N)c(Cl)cc1C(=O)NC1CCN2C(C)CCCC2C1 (stereo in doubt; 2) |  |  |  |
|  | COc1cc(N)c(Cl)cc1C(=O)NC1CCN2C(C)CCCC2C1 (stereo in doubt; 2) [BRL-20627] |  | 25 |  |
|  | COc1cc(N)c(Cl)cc1C(=O)NC1CCN2CCCC2C1 (stereo in doubt; 8 (Eq)) [listing 1 of 2 here] | 5 |  | ED50 [2, 6]: 6 mg/kg |
| 1.2 | COc1cc(N)c(Cl)cc1C(=O)NC1CCN2CCCC2C1 (stereo in doubt; 8 (Eq)) [listing 2 of 2 here] |  |  |  |
|  | COc1cc(N)c(Cl)cc1C(=O)NC1CCN2CCCC2C1 (stereo in doubt; 9 (Ax)) [listing 1 of 2 here] | 0.2 | 12 |  |
| 60 | COc1cc(N)c(Cl)cc1C(=O)NC1CCN2CCCC2C1 (stereo in doubt; 9 (Ax)) [listing 2 of 2 here] |  |  |  |
|  | COc1cc(N)c(Cl)cc1C(=O)NC1CCCN2CCCC12 (stereo in doubt; 10 (Eq)) | >5 | 3.5 |  |
|  | COc1cc(N)c(Cl)cc1C(=O)NC1CCCN2CCCC12 (stereo in doubt; 11 (Ax)) [listing 1 of 2 here] | 0.5 | 0.1 |  |
| 0.2 | COc1cc(N)c(Cl)cc1C(=O)NC1CCCN2CCCC12 (stereo in doubt; 11 (Ax)) [listing 2 of 2 here] |  |  |  |
|  | COc1cc(N)c(Cl)cc1C(=O)NC1CCN2CC(C)CCC2C1 (stereo in doubt; 17) | >5 |  | ED50 [2, 6]: > 10 mg/kg |
|  | COc1cc(N)c(Cl)cc1C(=O)NC1CCN2CC(C)CCC2C1 (stereo in doubt; 18) | 5 |  |  |
|  | COc1cc(N)c(Cl)cc1C(=O)NC1CCN2C(C)CCCC2C1 (stereo in doubt; 19) [BRL-20627] | >5 |  |  |
|  | COc1cc(N)c(Cl)cc1C(=O)NC1CCN2C(CCCC2c2ccccc2)C1 (stereo in doubt; 21) |  |  | ED50 [2, 6]: 5 mg/kg |
|  | COc1cc(N)c(Cl)cc1C(=O)NC1CCN2C(CCCC2c2ccccc2)C1 (stereo in doubt; 22) | >5 | 5 |  |
|  | COc1cc(N)c(Cl)cc1C(=O)NC1CC(C)N2CCCCC2C1 (stereo in doubt; 23) | >5 |  |  |
|  | COc1cc(N)c(Cl)cc1C(=O)NC1CC(C)N2CCCCC2C1 (stereo in doubt; 25) | >1 |  | ED50 [2, 6]: > 30 mg/kg |
|  | COc1cc(N)c(Cl)cc1C(=O)NC1CC(C)N2CCCC2C1 (stereo in doubt; 27) [listing 1 of 2 here] |  | 10 |  |
| 10 | COc1cc(N)c(Cl)cc1C(=O)NC1CC(C)N2CCCC2C1 (stereo in doubt; 27) [listing 2 of 2 here] |  |  |  |
|  | COc1cc(N)c(Cl)cc1C(=O)NC1CC(C)N2CCCC2C1 (stereo in doubt; 28) [listing 1 of 2 here] | 1 | 50 |  |
| 50 | COc1cc(N)c(Cl)cc1C(=O)NC1CC(C)N2CCCC2C1 (stereo in doubt; 28) [listing 2 of 2 here] |  |  |  |
|  | COc1cc(N)c(Cl)cc1C(=O)NC1CC(C)N2CCCC2C1 (stereo in doubt; 29) [listing 1 of 2 here] |  | 34 |  |
| 34 | COc1cc(N)c(Cl)cc1C(=O)NC1CC(C)N2CCCC2C1 (stereo in doubt; 29) [listing 2 of 2 here] |  |  |  |
|  | COc1cc(N)c(Cl)cc1C(=O)NC1CC(C)N2CCCC2C1 (stereo in doubt; 30) | >1 | >50 |  |
| 0.8 | CCN(CC)CCNC(=O)c1cc(Cl)c(N)cc1OC [METOCLOPRAMIDE] | 1 |  | ED50 [2, 6]: 0.8 mg/kg |

From ChEMBL document CHEMBL1126459, “Substituted Benzamides with Conformationally Restricted Side Chains. 3. Azabicyclo[x.y.0] derivatives as gastric prokinetic agents” (Bioorg Med Chem Lett, 1992)
